From patent US10399968B2, “Hydroxyalkyl thiadiazole derivatives” (Daiichi Sankyo Company, Limited, priority 2015, dated 2019)
Converted amounts (≈) assume the structure as drawn. Where two headings read alike, the source gives them in different places.

How the values were obtained:
[1] = Oral bioavailability (BA) in monkeys; assay type: in vivo, Macaca fascicularis; conditions: male, cynomolgus monkey, blood, 1 mg/kg oral vs jugular vein
Description: To male Macaca fascicularis (3 or 4 year-old) fasted overnight, a solution of the test compound Captisol® was administered into the jugular vein (3 animals) and a solution of Lutrol® F68 was orally administered (3 animals). The dose of both test compounds was 1 mg/kg body weight of the monkey. The amount of Captisol® used was 0.18 mg/kg body weight of the monkey. The amount of Lutrol® F68 used was 0.02 mg/kg body weight of the monkey. The BA value was calculated by the formula below using the integration value (AUCiv(0-∞)) of the blood concentration extrapolated from time 0 to infinity after administration of both test compounds. BA(%)=[[(AUCpo(0-∞))/(dose po)]/[(AUCiv(0-∞))/(dose iv)]]×100 The greater a BA value of the compound shown, the higher the oral bioavailability is.

[2] = Oral bioavailability (BA) in rats; assay type: in vivo; conditions: male, SD, blood; Rat, 2 mg/kg oral vs jugular vein
Description: To SD male rats (7 week-old) fasted overnight, a solution of the test compound Captisol® was administered into the jugular vein (3 animals) and a solution of Lutrol® F68 was administered orally (3 animals). The dose of the test compounds was 2 mg/kg body weight of the rat for both administration routes. The amount of Captisol® used was 0.36 mg/kg body weight of the rat. The amount of Lutrol® F68 used was 0.02 mg/kg body weight of the rat. The BA value was calculated by the formula below using the integration value (AUCiv(0-∞)) of the blood concentration extrapolated from time 0 to infinity after administration of both test compounds. The greater a BA value of the compound shown, the higher the oral bioavailability is.

[3] = tested on: Clostridium difficile ATCC 43255; assay: Susceptibility of Clostridium difficile, agar dilution MIC; assay type: cell-based; conditions: Clostridioides difficile, ATCC43255, anaerobic
Description: The antibacterial activity of the compounds of the present invention against Clostridium difficile clinical isolates was tested by the agar dilution method. The assay was carried out according to the CLSI guidelines for managing the procedures of susceptibility tests “M11-A8, Methods for Antimicrobial Susceptibility Testing of Anaerobic Bacteria; Approved Standard-Eighth Edition. CLSI document (2012)”.
The test strains were spread on supplemented Brucella agar (SBA) plates and grown at 36° C. under anaerobic condition for 42 to 48 hours. The test compound dilutions were prepared with Brucella broth and SBA plates containing dilution of test compound were prepared. As an anaerobic growth control, plates not containing the test compound were also prepared. Colonies grown on plates were suspended with Brucella broth to adjust the turbidity to 0.5 McFarland using a densitometer. Suspension (1-2 μL) of the test strains was inoculated onto each agar surface by using a bacterial suspension inoculation apparatus. After anaerobic incubation at 36° C. for 42 to 48 hours, absence and presence of growth of each strain were examined with unaided eye. The MIC was determined at which a marked reduction occurs in the appearance of growth on the test plate as compared to that of growth on the anaerobic control plates.

S. aureus ATCC 29213 = assay: Susceptibility of bacteria, broth microdilution MIC; assay type: cell-based; conditions: Staphylococcus aureus, ATCC29213
Description: The antibacterial activity of the compounds of the present invention was tested by the broth microdilution method. The assay was carried out according to the CLSI guidelines for managing the procedures of susceptibility tests: “M7-A7 Methods for Dilution Antimicrobial Susceptibility Tests for Bacteria That Grow Aerobically; Approved Standard-Seventh Edition (2006)”. Test strains were grown on appropriate agar plates overnight. A broth containing the test compound diluted serially 2-fold and diluents were dispensed at 100 μL to each well of a 96-well microplate. As a growth control, a well with a broth not containing the test compound was also prepared. Colonies grown on the plates were suspended in saline, adjusted to 0.5 McFarland (OD625=0.08 to 0.10) using a colorimeter, and then diluted 10-fold with saline. The bacterial suspension was inoculated at 4 μL into each well of the microplate using a bacterial suspension inoculation apparatus. The inoculated microplate was incubated at 35° C. overnight (about 20 hours). The growth condition was observed by the naked eye, and the minimum concentration to inhibit bacterial proliferation was defined as a minimum inhibitory concentration (MIC). The MICs of compounds disclosed herein for E. faecium, Streptococcus pneumoniae and Haemophilus influenzae are shown in Table 2, while for S. aureus in Table 3.

[4] = Change of weight when relative humidity varied stepwise; assay type: physicochemical
Description: The Form I thus obtained was characterized by i) the diffraction pattern obtained from powder X-ray diffraction analysis (CuK, λ=1.54 Å, scan rate=20°/min) (FIG. 2) and ii) the thermogravimetric analysis pattern (TG/DTA pattern) obtained from measurement of sample (3 mg) at heating rate of about 10° C./minute (FIG. 3). […] Further, the pattern of change of weight of the sample was shown (FIG. 4), which was observed when relative humidity was varied stepwise.
The thermogravimetric analysis pattern (TG/DTA pattern) obtained from measurement of sample (3 mg) at heating rate of about 10° C./minute is as depicted in FIG. 6. […] Further, the pattern of change of weight of the sample was shown in FIG. 7, which was observed when relative humidity was varied stepwise.

Staphylococcus aureus = assay: Neutropenic mouse thigh or calf muscle infection model; assay type: in vivo; conditions: neutropenic mice, compared with linezolid
Text: After culture in broth medium (i) suitable diluent of a bacterial suspension of the Staphylococcus aureus strain, or (ii) equivalent mixture of suitable diluent of a bacterial suspension of the Enterococcus faecium strain and a 10% mucin suspension were used as the inoculum. The bacterial suspension was inoculated under anesthesia with a ketamine-xylazine mixture into the thigh or calf muscle of Swiss albino mice or ICR mice (4- to 6-week-old) compromised by the cyclophosphamide administration. The drug was administered to the mice 1 to 8 times at an interval of 3 to 24 hours. The number of bacteria in the thigh or calf muscle was counted for the non-treated group immediately before initial administration of the drug (pre-control), for the non-treated group (post-control) and for the drug-administered group on the next day of administration of the drug and infection. A change in the number of bacteria in the thigh or calf muscle was used as an index of therapeutic effect.

[5] = Solubility in water (JP1 / JP2 fluids); assay type: physicochemical; conditions: thermodynamic from solid
Description: A 10 mmol/L solution of the test compound was prepared in DMSO and dispensed 100 μL of 10 mmol/L DMSO stock solutions into labeled glass tubes in duplicate, one for Japanese Pharmacopeia First Fluid (JP1) and second for Japanese Pharmacopeia Second Fluid (JP2). After evaporation of DMSO from each tube, 500 μL of JP1 and JP2 fluid were added in each tube, respectively. These tubes were sonicated for 1 minute and placed on shaker for 30 minutes with an interval of 30 seconds at every 5 minute. Tubes were placed in dark at room temperature for 1 hour and solution was filtered through membrane filter. The filtrate was diluted 2-fold and 10-fold. The resulting test solutions was analyzed and quantified against the standards using UPLC (standard preparation—10 mmol/L solution in DMSO is serially diluted with 50% aqueous acetonitrile solution to prepare 2 solutions; 100 μmol/L standard solution and 5 μmol/L standard solutions).

[6] = tested on: Streptococcus pneumoniae ATCC 49619; assay: Susceptibility of bacteria, broth microdilution MIC; assay type: cell-based; conditions: ATCC49619
Description: (§1) The antibacterial activity of the compounds of the present invention was tested by the broth microdilution method. The assay was carried out according to the CLSI guidelines for managing the procedures of susceptibility tests: “M7-A7 Methods for Dilution Antimicrobial Susceptibility Tests for Bacteria That Grow Aerobically; Approved Standard-Seventh Edition (2006)”. Test strains were grown on appropriate agar plates overnight. A broth containing the test compound diluted serially 2-fold and diluents were dispensed at 100 μL to each well of a 96-well microplate. As a growth control, a well with a broth not containing the test compound was also prepared. Colonies grown on the plates were suspended in saline, adjusted to 0.5 McFarland (OD625=0.08 to 0.10) using a colorimeter, and then diluted 10-fold with saline. The bacterial suspension was inoculated at 4 μL into each well of the microplate using a bacterial suspension inoculation apparatus. The inoculated microplate was incubated at 35° C. overnight (about 20 hours). The growth condition was observed by the naked eye, and the minimum concentration to inhibit bacterial proliferation was defined as a minimum inhibitory concentration (MIC).

E. faecium ATCC 29212 = assay: as above; assay type: cell-based; conditions: Enterococcus faecium, ATCC29212
Description: as §1

[7] = tested on: Haemophilus influenzae ATCC 49247; assay: as above; assay type: cell-based; conditions: ATCC49247
Description: as §1

[8] = target: Clostridium difficile DNA gyrase (Clostridioides difficile, UniProt Q18C89); assay: DNA supercoiling inhibition assay; assay type: biochemical; conditions: supercoiling of relaxed pBR322 DNA, 60 minutes at 37° C.
Clostridium difficile DNA gyrase, sequence (Q18C90 entry or part of it): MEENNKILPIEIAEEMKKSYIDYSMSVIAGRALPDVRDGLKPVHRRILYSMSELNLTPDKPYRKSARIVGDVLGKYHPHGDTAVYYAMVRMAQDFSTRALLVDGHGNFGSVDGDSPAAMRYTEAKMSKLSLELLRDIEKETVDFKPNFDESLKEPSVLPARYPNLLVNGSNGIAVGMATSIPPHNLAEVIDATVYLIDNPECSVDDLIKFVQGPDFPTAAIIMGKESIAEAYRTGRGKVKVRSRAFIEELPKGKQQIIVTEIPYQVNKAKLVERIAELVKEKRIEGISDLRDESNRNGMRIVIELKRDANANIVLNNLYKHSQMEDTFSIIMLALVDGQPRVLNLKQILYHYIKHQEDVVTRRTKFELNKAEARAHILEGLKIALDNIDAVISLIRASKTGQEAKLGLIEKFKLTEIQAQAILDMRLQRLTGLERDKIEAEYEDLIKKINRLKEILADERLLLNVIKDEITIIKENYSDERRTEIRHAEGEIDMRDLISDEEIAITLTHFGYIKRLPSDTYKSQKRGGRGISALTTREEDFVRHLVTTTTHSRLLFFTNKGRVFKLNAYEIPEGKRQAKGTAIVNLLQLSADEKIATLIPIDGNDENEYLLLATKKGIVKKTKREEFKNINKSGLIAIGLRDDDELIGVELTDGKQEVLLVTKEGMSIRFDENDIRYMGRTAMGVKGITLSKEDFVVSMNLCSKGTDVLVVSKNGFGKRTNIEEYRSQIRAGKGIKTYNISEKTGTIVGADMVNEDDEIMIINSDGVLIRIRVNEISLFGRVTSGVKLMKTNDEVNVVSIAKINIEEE
Clostridium difficile DNA gyrase, sequence (Q18C89 entry or part of it): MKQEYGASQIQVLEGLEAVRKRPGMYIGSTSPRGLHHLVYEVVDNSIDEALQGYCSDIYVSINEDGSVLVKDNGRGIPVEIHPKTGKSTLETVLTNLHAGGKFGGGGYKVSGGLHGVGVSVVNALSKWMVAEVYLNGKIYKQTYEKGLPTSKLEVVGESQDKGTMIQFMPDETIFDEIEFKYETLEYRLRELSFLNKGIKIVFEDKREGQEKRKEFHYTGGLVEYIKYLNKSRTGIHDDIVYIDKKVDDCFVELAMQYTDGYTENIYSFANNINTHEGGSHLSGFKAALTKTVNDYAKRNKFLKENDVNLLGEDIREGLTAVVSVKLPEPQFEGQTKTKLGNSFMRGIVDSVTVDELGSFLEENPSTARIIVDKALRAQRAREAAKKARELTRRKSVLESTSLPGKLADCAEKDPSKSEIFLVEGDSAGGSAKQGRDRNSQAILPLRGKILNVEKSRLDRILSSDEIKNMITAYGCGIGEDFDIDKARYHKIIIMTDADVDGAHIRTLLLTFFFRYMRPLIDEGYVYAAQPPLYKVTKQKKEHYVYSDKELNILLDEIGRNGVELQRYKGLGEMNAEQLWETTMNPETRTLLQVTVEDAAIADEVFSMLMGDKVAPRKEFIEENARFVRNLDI
Description: DNA supercoiling assays (30 μL reaction) were performed in a buffer containing 15 mM Tris-HCl pH 7.5, 13% glycerol, 6 mM MgCl2, 0.1 mg/mL BSA, 70 mM KCl, 1 mM dithioerythritol, 400 ng of DNA substrate (relaxed pBR322 DNA) and different concentrations of test compounds and/or standards. The dilutions of test compounds and standards were prepared in 20% dimethylsulfoxide (DMSO) and added 3 μL/reaction. The reaction was started by adding 2 μL amounts of Clostridium difficile DNA gyrase into the reaction mixtures and reactions were allowed to proceed for 60 minutes at 37° C. A reaction was carried out by adding 3 μL of 20% DMSO instead of test compound as full reaction control, and another reaction was carried out by adding sterile water instead of the enzyme as no reaction control.
Reactions were stopped by the addition of 5 μL of 6×loading dye and were analyzed by electrophoresis through 1.0% agarose gels with 1×TAE running buffer. Gels were run at 60 V for 3 hours, stained with EtBr, and visualized by Gel Doc system (BioRad). Intensity of the supercoiled DNA bands was quantified, and the IC50 of Clostridium difficile DNA gyrase was calculated using Graph Pad Prism.

SMILES: CCc1[nH]c(C(=O)N[C@@H]2CCN(c3nnc(C(C)O)s3)C[C@@H]2OC)nc1Cl (mixture of isomers) [Compound No. 3, 4-Chloro-5-ethyl-N-{(3S,4R)-1-[5-(1-hydroxyethyl)-1,3,4-thiadiazol-2-yl]-3-methoxypiperidin-4-yl}-1H-imidazole-2-carboxamide]
- bioavailability [1]: 100%
- bioavailability [2]: 51%
- MIC [3]: 0.125 µg/mL
- MIC (S. aureus ATCC 29213): 0.5 µg/mL

SMILES: CCc1[nH]c(C(=O)N[C@@H]2CCN(c3nnc(C(C)(C)O)s3)C[C@@H]2OC)nc1Cl [Form I, 4-chloro-5-ethyl-N-{(3S,4R)-1-[5-(2-hydroxypropan-2-yl)-1,3,4-thiadiazol-2-yl]-3-methoxypiperidin-4-yl}-1H-imidazole-2-carboxamide]
- change of weight [4]: ≤ 0.3%

SMILES: CCc1[nH]c(C(=O)N[C@@H]2CCN(c3nnc([C@@H](C)O)s3)C[C@@H]2OC)nc1Cl (single isomer, unassigned) [Compound No. 4]
- therapeutic effect against Staphylococcus aureus (number of bacteria in thigh or calf muscle) (Staphylococcus aureus): equivalent to or higher than linezolid
- bioavailability [1]: 92%
- MIC [3]: 0.06 µg/mL (≈ 0.145 µM)
- solubility at 30 min ([5]; Japanese Pharmacopeia First Fluid (JP1), pH 1.2, simulated gastric fluid, read-out: Solubility JP1): 612 µg/mL (≈ 1470 µM)
- solubility at 30 min ([5]; Japanese Pharmacopeia Second Fluid (JP2), pH 6.8, aqueous buffer, read-out: Solubility JP2): 304 µg/mL (≈ 733 µM)
- MIC (S. aureus ATCC 29213): 0.5 µg/mL (≈ 1.21 µM)
- MIC [6]: 0.25 µg/mL (≈ 0.603 µM)
- MIC (E. faecium ATCC 29212): 0.25 µg/mL (≈ 0.603 µM)
- MIC [7]: 1 µg/mL (≈ 2.41 µM)
- IC50 [8]: 14.5 nM

SMILES: CCc1[nH]c(C(=O)N[C@@H]2CCN(c3nnc(C(C)(C)O)s3)C[C@@H]2OC)nc1Cl [Form II, 4-chloro-5-ethyl-N-{(3S,4R)-1-[5-(2-hydroxypropan-2-yl)-1,3,4-thiadiazol-2-yl]-3-methoxypiperidin-4-yl}-1H-imidazole-2-carboxamide]
- weight change due absorption or desorption of moisture [4]: no weight change
